# Measured values from ChEMBL document CHEMBL4507276 (2021).
# pIC50: −log10 of the molar value.
# What was measured:
# [1] = target: T1, Tyrosine-protein kinase receptor TYRO3 (Homo sapiens) (UniProt Q06418); assay: TYRO3 Invitrogen selectivity data (BI); details: Compound concentration 3.0 uM
# T1 sequence (whole entry): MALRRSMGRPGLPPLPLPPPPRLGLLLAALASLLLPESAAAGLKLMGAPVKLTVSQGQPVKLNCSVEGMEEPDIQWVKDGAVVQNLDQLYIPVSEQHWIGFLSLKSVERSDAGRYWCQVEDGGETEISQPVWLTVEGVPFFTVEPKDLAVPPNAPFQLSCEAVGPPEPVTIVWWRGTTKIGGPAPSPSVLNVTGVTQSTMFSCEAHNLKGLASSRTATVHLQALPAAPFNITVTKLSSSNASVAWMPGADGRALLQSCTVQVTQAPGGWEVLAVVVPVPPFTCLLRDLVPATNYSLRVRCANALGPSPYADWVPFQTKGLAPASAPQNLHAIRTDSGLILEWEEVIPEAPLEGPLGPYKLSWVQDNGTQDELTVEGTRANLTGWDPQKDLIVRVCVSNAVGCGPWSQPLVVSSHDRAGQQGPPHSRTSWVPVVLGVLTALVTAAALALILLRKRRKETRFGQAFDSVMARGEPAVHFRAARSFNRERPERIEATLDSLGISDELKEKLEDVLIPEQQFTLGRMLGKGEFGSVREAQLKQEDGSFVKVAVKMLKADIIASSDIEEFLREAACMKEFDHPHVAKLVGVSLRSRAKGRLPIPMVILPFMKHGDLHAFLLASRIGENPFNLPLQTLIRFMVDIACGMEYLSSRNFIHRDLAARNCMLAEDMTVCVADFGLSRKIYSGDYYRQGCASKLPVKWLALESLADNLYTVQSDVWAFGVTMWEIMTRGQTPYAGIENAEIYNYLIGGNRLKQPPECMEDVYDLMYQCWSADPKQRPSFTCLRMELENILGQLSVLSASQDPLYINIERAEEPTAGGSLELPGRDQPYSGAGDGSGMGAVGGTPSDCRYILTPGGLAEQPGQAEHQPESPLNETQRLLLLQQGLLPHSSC
# [2] = target: Sigma non-opioid intracellular receptor 1 (Homo sapiens) (UniProt Q99720); assay: SIGMA1/HU Eurofins-Panlabs selectivity data (BI); details: Compound concentration 10.0 uM
# [3] = target: Homeodomain-interacting protein kinase 1 (Homo sapiens) (UniProt Q86Z02); assay: HIPK1 Invitrogen selectivity data (BI); details: Compound concentration 3.0 uM
# [4] = target: Ephrin type-A receptor 2 (Homo sapiens) (UniProt P29317); assay: EPHA2 Invitrogen selectivity data (BI); details: Compound concentration 3.0 uM
# [5] = target: Calcium/calmodulin-dependent protein kinase kinase 1 (Homo sapiens) (UniProt Q8N5S9); assay: CAMKK1 Invitrogen selectivity data (BI); details: Compound concentration 3.0 uM
# Caspase-3 (Homo sapiens) = Caspase-3 (Homo sapiens) (UniProt P42574); assay: CASPASE-3 Cerep selectivity data (BI); details: Compound concentration 20.0 uM
# [6] = target: Alpha-1D adrenergic receptor (Homo sapiens) (UniProt P25100); details: Compound concentration 10.0 uM
# [7] = target: Proto-oncogene tyrosine-protein kinase ROS (Homo sapiens) (UniProt P08922); assay: ROS1 Invitrogen selectivity data (BI); details: Compound concentration 3.0 uM
# [8] = target: Voltage-dependent N-type calcium channel subunit alpha-1B (Rattus norvegicus) (UniProt Q02294); assay: CA+/N/RA Eurofins-Panlabs selectivity data (BI); details: Compound concentration 10.0 uM
# [9] = target: Gamma-aminobutyric acid receptor subunit alpha-1 (Rattus norvegicus) (UniProt P62813); assay: GABAA MUSCIMOL CENT Eurofins-Panlabs selectivity data (BI); details: Compound concentration 10.0 uM
# [10] = target: G protein-coupled receptor kinase 6 (Homo sapiens) (UniProt P43250); assay: GRK6 Invitrogen selectivity data (BI); details: Compound concentration 3.0 uM
# [11] = target: PI3-kinase p110-delta/p85-alpha (Homo sapiens) (UniProt P27986+O00329); assay: PIK3CDPIK3R1 Invitrogen selectivity data (BI); format: protein-complex assay; details: Compound concentration 3.0 uM
# [12] = target: Arachidonate 5-lipoxygenase-activating protein (Homo sapiens, UniProt P20292); assay: Functional inhibition in mouse whole blood; format: tissue-based; details: target entry is the homologue from another species
# [13] = target: Serine/threonine-protein kinase WNK2 (Homo sapiens) (UniProt Q9Y3S1); assay: WNK2 Invitrogen selectivity data (BI); details: Compound concentration 3.0 uM
# [14] = target: Prostaglandin F2-alpha receptor (Homo sapiens) (UniProt P43088); assay: FPH_AGON Cerep selectivity data (BI); details: filed as agonist, Compound concentration 20.0 uM
# [15] = target: 5-hydroxytryptamine receptor 6 (Homo sapiens) (UniProt P50406); assay: 5HT6/H Cerep selectivity data (BI); details: Compound concentration 20.0 uM
# [16] = target: T2, Ephrin type-A receptor 1 (Homo sapiens) (UniProt P21709); assay: EPHA1 Invitrogen selectivity data (BI); details: Compound concentration 3.0 uM
# T2 sequence (whole entry): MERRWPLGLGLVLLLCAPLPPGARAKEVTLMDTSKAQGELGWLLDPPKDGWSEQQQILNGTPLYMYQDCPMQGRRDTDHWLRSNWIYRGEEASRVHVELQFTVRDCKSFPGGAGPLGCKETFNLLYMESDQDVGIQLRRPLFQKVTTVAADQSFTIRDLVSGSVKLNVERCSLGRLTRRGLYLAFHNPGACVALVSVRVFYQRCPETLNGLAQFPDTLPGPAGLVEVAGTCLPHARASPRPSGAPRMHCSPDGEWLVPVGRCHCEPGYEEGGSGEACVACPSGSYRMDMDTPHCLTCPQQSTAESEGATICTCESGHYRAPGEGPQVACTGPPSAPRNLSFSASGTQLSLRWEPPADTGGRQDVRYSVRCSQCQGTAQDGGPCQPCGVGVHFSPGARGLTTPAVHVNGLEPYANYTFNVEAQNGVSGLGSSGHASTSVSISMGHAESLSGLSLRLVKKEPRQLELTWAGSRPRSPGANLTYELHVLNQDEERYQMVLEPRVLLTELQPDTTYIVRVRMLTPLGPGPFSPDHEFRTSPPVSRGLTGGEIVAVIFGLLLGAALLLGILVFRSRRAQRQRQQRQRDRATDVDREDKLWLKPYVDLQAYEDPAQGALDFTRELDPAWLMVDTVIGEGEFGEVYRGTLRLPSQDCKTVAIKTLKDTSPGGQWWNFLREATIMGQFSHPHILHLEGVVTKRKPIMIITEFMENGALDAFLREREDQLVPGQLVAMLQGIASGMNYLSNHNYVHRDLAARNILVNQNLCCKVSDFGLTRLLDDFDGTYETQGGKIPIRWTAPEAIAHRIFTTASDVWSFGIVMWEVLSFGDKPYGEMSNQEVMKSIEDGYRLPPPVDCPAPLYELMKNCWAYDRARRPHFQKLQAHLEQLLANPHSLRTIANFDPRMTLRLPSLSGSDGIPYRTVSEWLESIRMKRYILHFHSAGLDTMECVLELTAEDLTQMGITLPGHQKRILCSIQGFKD
# [17] = target: Platelet-activating factor receptor (Homo sapiens) (UniProt P25105); assay: PAF Cerep selectivity data (BI); details: filed as agonist, Compound concentration 20.0 uM
# [18] = target: Cysteinyl leukotriene receptor 1 (Homo sapiens) (UniProt Q9Y271); assay: CYSLT1_HS Eurofins-Panlabs selectivity data (BI); details: Compound concentration 10.0 uM
# 5-hydroxytryptamine receptor 6 (Homo sapiens), sequence (P50406 whole entry): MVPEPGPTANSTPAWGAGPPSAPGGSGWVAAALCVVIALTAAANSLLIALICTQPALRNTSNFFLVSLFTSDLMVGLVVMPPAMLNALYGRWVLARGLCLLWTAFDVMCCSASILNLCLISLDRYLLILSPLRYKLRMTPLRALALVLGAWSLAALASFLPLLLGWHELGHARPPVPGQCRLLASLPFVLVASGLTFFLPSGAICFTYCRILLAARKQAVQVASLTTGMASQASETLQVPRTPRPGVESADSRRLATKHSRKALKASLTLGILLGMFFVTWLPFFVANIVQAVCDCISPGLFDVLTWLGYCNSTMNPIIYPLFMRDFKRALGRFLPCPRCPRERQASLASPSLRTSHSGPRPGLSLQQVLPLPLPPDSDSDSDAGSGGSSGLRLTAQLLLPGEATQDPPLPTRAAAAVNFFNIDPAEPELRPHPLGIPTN
# Prostaglandin F2-alpha receptor (Homo sapiens), sequence (P43088 whole entry): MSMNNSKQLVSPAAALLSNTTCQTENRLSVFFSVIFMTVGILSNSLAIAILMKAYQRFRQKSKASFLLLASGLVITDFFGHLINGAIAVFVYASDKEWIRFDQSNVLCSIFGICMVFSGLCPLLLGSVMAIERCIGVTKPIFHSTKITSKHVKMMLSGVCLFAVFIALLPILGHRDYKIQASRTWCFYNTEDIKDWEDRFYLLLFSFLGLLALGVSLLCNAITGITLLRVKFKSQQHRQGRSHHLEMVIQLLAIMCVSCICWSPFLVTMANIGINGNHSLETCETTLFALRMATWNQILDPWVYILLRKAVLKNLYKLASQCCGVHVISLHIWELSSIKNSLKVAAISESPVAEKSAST
# G protein-coupled receptor kinase 6 (Homo sapiens), sequence (P43250 whole entry, looked up): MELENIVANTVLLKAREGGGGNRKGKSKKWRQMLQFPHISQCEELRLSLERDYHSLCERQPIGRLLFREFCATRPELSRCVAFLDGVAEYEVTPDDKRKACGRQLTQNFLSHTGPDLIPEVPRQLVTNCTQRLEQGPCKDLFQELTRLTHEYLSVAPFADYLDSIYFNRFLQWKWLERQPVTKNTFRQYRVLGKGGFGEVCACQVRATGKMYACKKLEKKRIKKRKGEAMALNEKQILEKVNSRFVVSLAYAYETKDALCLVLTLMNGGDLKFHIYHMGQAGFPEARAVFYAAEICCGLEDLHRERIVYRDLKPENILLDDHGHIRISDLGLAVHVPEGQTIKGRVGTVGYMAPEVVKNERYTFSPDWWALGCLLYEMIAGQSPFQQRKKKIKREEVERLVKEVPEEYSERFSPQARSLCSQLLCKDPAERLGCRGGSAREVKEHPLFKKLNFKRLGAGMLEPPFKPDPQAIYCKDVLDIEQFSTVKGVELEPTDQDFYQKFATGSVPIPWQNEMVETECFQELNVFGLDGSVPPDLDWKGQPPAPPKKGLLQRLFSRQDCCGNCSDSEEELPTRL
# Ephrin type-A receptor 2 (Homo sapiens), sequence (P29317 whole entry): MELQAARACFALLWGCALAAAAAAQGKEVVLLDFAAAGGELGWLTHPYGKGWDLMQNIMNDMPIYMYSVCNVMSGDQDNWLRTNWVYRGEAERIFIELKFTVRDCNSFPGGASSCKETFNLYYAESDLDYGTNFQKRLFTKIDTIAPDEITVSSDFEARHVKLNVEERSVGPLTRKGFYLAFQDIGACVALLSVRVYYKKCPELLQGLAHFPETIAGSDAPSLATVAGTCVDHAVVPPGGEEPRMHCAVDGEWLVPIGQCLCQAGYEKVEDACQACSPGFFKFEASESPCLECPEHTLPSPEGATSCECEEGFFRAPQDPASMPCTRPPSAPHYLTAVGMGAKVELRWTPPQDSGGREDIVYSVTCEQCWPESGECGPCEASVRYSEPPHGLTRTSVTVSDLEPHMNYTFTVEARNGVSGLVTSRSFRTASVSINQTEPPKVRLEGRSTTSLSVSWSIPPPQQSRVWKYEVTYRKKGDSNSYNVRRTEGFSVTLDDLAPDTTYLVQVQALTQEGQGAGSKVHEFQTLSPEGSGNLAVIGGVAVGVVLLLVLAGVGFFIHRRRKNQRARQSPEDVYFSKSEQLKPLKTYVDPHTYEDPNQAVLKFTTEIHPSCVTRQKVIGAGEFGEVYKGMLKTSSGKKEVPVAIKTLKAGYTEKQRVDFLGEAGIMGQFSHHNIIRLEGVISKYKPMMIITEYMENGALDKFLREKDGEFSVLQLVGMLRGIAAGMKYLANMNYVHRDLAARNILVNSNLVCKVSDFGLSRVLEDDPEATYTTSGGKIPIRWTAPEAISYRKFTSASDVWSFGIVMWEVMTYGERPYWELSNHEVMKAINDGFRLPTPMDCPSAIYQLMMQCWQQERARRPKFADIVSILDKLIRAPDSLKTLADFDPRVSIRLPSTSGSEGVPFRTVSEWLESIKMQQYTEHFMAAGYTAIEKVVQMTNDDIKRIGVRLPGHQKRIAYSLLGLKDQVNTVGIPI
# Caspase-3 (Homo sapiens), sequence (P42574 29-175 limits assumed): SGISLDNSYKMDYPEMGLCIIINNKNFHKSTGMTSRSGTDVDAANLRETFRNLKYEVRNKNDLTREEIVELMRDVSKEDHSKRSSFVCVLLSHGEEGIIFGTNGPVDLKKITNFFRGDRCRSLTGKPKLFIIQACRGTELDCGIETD
# Caspase-3 (Homo sapiens), sequence (P42574 176-277 limits assumed): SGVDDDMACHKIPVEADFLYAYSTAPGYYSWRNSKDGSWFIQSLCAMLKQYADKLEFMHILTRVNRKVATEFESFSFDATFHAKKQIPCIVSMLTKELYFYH
# Calcium/calmodulin-dependent protein kinase kinase 1 (Homo sapiens), sequence (Q8N5S9 whole entry, looked up): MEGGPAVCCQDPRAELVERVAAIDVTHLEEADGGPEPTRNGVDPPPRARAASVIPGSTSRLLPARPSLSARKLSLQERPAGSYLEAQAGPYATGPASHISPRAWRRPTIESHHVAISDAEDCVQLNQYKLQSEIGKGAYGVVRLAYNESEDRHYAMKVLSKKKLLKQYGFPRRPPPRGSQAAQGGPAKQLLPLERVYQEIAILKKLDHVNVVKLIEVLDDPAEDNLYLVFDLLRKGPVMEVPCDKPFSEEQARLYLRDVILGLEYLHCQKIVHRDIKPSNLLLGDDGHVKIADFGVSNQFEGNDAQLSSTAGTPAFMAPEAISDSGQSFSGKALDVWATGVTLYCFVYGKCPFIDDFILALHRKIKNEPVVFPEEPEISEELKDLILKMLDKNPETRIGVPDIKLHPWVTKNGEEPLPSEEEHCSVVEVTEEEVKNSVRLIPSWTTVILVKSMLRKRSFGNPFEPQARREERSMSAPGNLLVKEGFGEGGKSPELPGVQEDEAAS
# Sigma non-opioid intracellular receptor 1 (Homo sapiens), sequence (Q99720 whole entry): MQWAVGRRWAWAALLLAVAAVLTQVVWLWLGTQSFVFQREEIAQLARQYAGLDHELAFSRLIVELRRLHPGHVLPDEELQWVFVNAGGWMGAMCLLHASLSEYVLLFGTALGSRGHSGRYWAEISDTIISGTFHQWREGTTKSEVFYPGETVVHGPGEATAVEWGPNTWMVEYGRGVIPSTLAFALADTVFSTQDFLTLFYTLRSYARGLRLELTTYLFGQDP
# Arachidonate 5-lipoxygenase-activating protein, sequence (P20292 whole entry): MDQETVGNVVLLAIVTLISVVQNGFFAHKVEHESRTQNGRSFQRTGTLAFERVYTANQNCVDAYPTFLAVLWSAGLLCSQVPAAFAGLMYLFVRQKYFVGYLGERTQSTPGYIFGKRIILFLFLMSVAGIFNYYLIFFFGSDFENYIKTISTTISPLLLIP
# Alpha-1D adrenergic receptor (Homo sapiens), sequence (P25100 whole entry): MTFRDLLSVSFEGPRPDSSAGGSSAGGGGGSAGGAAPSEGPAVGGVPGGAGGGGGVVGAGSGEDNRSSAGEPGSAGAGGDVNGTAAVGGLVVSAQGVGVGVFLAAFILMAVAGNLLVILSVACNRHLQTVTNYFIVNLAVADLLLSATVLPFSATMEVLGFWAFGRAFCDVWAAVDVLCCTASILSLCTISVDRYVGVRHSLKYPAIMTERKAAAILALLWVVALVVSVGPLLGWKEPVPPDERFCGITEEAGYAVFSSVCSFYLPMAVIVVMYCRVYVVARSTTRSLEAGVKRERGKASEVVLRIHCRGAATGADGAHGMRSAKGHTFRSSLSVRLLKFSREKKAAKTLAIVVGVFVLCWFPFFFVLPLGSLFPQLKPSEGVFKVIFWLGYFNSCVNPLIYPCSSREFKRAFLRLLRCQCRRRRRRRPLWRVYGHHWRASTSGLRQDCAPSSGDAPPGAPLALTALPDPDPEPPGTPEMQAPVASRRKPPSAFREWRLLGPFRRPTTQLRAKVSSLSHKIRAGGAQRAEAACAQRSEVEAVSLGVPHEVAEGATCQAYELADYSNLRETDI
# Gamma-aminobutyric acid receptor subunit alpha-1 (Rattus norvegicus), sequence (P62813 whole entry): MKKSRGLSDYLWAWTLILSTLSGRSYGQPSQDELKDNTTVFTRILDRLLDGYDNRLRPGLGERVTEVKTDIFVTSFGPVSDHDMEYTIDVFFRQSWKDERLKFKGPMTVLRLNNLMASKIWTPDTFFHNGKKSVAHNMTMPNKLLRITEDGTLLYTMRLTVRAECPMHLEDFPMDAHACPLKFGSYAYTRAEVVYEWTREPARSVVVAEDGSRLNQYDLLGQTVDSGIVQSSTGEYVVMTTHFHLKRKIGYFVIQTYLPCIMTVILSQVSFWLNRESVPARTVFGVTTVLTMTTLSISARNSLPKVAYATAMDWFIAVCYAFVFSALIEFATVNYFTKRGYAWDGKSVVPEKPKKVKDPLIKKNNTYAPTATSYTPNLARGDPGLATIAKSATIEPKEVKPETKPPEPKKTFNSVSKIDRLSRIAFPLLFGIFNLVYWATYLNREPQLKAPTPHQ
# Platelet-activating factor receptor (Homo sapiens), sequence (P25105 whole entry): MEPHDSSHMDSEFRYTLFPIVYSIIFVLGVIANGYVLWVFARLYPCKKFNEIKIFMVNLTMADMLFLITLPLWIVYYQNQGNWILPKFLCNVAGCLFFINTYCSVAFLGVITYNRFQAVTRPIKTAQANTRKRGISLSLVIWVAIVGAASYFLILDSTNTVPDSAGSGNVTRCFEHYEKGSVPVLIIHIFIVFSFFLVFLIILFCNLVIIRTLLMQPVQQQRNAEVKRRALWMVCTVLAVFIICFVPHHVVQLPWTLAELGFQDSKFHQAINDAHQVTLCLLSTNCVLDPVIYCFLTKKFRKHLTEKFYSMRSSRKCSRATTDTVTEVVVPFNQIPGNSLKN
smiles,measurement,setting,value
CN(C)C(=O)Cn1cc(-c2nc([C@@](C)(c3ccc(-c4cnc(N)nc4)cc3)C3CC3)no2)cn1 [BI 665915],residual activity,[1],96.5%
same,residual activity,[2],108%
same,residual activity,[3],97%
same,residual activity,[4],99%
same,residual activity,[5],102%
same,residual activity,Caspase-3 (Homo sapiens),98%
same,inhibition,[6],-3.06%
same,residual activity,[7],97.5%
same,residual activity,[8],95%
same,residual activity,[9],100%
same,residual activity,[10],102%
same,residual activity,[11],99.5%
same,pIC50,[12],5.32
same,residual activity,[13],96%
same,residual activity,[14],84%
same,residual activity,[15],95%
same,residual activity,[16],89%
same,residual activity,[17],65%
same,residual activity,[18],100%
